# Assay results: publication PMC7343282, “Tissue Distribution of Several Series of Cationic Surfactants in Rainbow Trout (Oncorhynchus mykiss) Following Exposure via Water” (Environmental Science & Technology, 2020)
# “And” between values parts separate entries of the source, which are not always exact repeats. Equal values may be shown once.
# Key:
# [1] = system: rainbow trout (Oncorhynchus mykiss); assay: Surface area-normalized mucus-water and gill-water distribution coefficients; settings: for Gill-water distribution coefficient (DG-W): from average concentrations in gills and water, calculated gill surface; for Mucus-water distribution coefficient (DMuc-W): from average concentrations in mucus and water
# Protocol: For each mixture, the syringe pump was started in an aquarium containing no fish. After 16 h, to allow the concentrations to stabilize, 12 rainbow trout were added. After 7 d of exposure, the fish in the exposure aquaria as well as several unexposed (control) fish were sacrificed. Following stunning, blood was collected with a heparinized syringe from the caudal vein into a 2 mL Eppendorf tube. The fish were weighed and photographed, and the length was measured. The outer surface area of the fish was estimated from the fish weight according to O’Shea et al.[27] [drawing 1] 1
# The gill surface area was estimated from the fish weight according to the equation specific for O. mykiss from a report by Hughes,[28] taken from ref ([29]) [drawing 2] 2
# Because the mass of extracted mucus was not determined, the concentrations in mucus were normalized to the estimated fish’s total surface area (eq 1) excluding the head, which was not rinsed.
# Surface area-normalized gill–water distribution coefficients (DG–W) were calculated from the average concentrations measured in gills and water, and a calculated gill surface based on rainbow trout specific scaling factors (eq 2). […] Unlike the skin, the gills were not rinsed with methanol, so the gill samples included gill mucus.
# [2] = Tissue-blood distribution coefficients and volume of distribution; settings: whole blood, pH 7.5, Estimated volume of distribution Vd, residues in muscle, liver and blood only
# Protocol: (§1) Blood is the transport medium for contaminants in fish, and the tissue distribution is governed by tissue–blood distribution coefficients. […] Muscle–blood and liver–blood distribution coefficients (DMus–B and DL–B) were calculated as the quotients of the concentrations in the respective tissues and blood. This approach implies that there was an internal test chemical steady state in the fish.
# (§2) The experimental data also allow estimation of the volume of distribution (Vd), an important parameter for extrapolating in vitro measures of e.g. metabolism to in vivo. In the context of quantitative in vitro–in vivo extrapolation for fish, Vd is defined as the quotient of the concentration in fish and the concentration in blood and describes the equivalent volume of blood that would contain the same amount of the chemical as 1 kg of fish.[40]Vd was estimated using the residues that had been clearly taken up systemically (i.e., those in muscle, liver and blood).
# [3] = ref Timmer and Droge (2017); cited from earlier work
# [4] = Tissue concentrations in rainbow trout after 7 d exposure via water (two mixtures); format: in vivo, Oncorhynchus mykiss; settings: rainbow trout (Oncorhynchus mykiss), in vivo
# Protocol: The study was conducted with rainbow trout (Oncorhynchus mykiss) weighing between 98 and 165 g. The fish were purchased from Nordic trout Sweden AB and held in the aquaria facility prior to the experiment in February 2018. Ethical approval for the experiments was obtained from Stockholms djurförsöksetiska nämnd (decision 9967-2017). The experiments were conducted in 300 L fiberglass aquaria with a water renewal rate of 1.3 L min^–1 (MIX 1) and 1.45 L min^–1 (MIX 2). The water temperature was 10 °C and the pH 7.5. The water hardness was estimated to be 1.1 mM Ca^2+ based on information from the water supplier. The aquaria water was circulated through a filter of polyester wool at 800–1200 L h^–1 with an Eheim 2273 Pro 4+ pump. The outflow from the filter pump was placed above the water surface, providing for aeration. The lighting was dim and programmed on a 12 h light/12 h dark cycle. The fish were fed fish food pellets supplied by the fish farm at 1.0% of their body weight per day.
# A solution of the test chemical mixture in methanol was infused continuously (3.5 and 3.8 μL min^–1 for MIX 1 and MIX 2, respectively) into the water inflow using a syringe pump. The intended concentrations of the chemicals in water ranged from 2.5 to 50 μg L^–1 (Table 1). They were selected with the help of modeled estimates of the BCF that were based on reported and extrapolated membrane water partition coefficients[7] and biotransformation rate constants predicted with quantitative structure activity relationships (QSARs)[24],[25] to parameterize the BIONIC model.[26] Based on these estimates, we selected an exposure concentration which would result in concentrations in fish that were clearly above the limit of quantification (LOQ) of the analytical method, while trying to keep the quantifiable exposure concentration as low as possible to minimize the risk of toxic effects and micelle formation (see comparison of intended concentrations with available toxicological data in Table S4).
# The surface of the fish posterior of the gills was rinsed with 100% methanol to remove test chemical residues adsorbed to the outer surface of the skin and absorbed in the skin mucus. […] The fish were dissected and the liver, the kidney, the gills, and the remaining contents of the abdominal cavity were taken and weighed. Skin and muscle samples were prepared from the upper dorsal region on semi-frozen fish after the methanol rinse had removed the mucus. The main part of the subcutaneous fat tissue was included in the muscle samples rather than in the skin samples. All samples were stored frozen at −20 °C until further analysis.
# For 6 fish from each aquarium and 3 control fish, samples of muscle, skin, liver, and gills were homogenized in a bullet blender (muscle and liver) (MiniG, SPEXsamplePrep) or in a cryo-mill (skin and gill) (Mixer mill cryomill, Retsch GmbH). A sub-sample of 0.5–1.2 g of the homogenate was extracted twice in methanol (4 mL, 50 °C, ultra-sound, 60 min), employing centrifugation at 4000 rpm for phase separation. Further information on the extraction efficiency of this method can be found in the Supporting Information (Table S5 and accompanying text). Isotope labeled standards of Q10 (D21), Q14 (D29), and P16 (D33) were added to a portion of the extract corresponding to 12–75 mg of the sample. The extract volume was adjusted to 3 mL with methanol and then cleaned up on a weak cationic exchange SPE column (WCX, 60 mg, 30 μm particle size, waters). Solvent elution was performed by gravity flow. The column was conditioned with 2 mL of methanol, followed by 2 mL of Milli-Q water adjusted to pH 7 with ammonium hydroxide to activate the ion exchange. The sample extract was loaded onto the column, and it was subsequently rinsed with 20 mL of methanol.
# Danio rerio = settings: ref REACH dossiers (European Chemicals Agency); cited from earlier work
# [5] = Membrane-water partition/distribution coefficient; settings: extrapolated from data of Timmer and Droge (2017)
# Pimephales promelas = system: Pimephales promelas; design: method as in REACH dossiers (European Chemicals Agency); settings: ref REACH dossiers (European Chemicals Agency); cited from earlier work
# [6] = system: rainbow trout (Oncorhynchus mykiss); assay: Tissue-blood distribution coefficients and volume of distribution; settings: residues in muscle, liver and blood only
# Protocol: as §1, §2
# [7] = pH 7.5, Concentration in muscle
Compound,Gill-water distribution coefficient (DG-W) [1],Mucus-water distribution coefficient (DMuc-W) [1],Vd at 7 d ([2]; Mean),Vd at 7 d ([2]; exposed fish #1),Vd at 7 d ([2]; exposed fish #2),Vd at 7 d ([2]; exposed fish #3),Vd at 7 d ([2]; exposed fish #4),Vd at 7 d ([2]; exposed fish #5),Vd at 7 d ([2]; exposed fish #6),"Log KMW,C (membrane-water partition coefficient of the charged form) [3]","concentration at 7 d ([4]; pH 7.5, Concentration in gills)","concentration at 7 d ([4]; pH 7.5, Concentration in skin)",concentration at 7 d ([4]; Concentration in skin),"concentration at 7 d ([4]; pH 7.5, Concentration in blood)","concentration at 7 d ([4]; pH 7.5, Concentration in liver)","Log KMW,C (membrane-water partition coefficient of the charged form), extrapolated [5]","concentration at 7 d [4, 7]",Estimated volume of distribution Vd ([6]; Mean),Estimated volume of distribution Vd ([6]; exposed fish #1),Estimated volume of distribution Vd ([6]; exposed fish #2),also measured
"CCCCCCCCCN [P9, Nonylamine]",0.44 mLcm-2,0.47 mL cm-2,0.91 L/kg,0.59 L/kg,1.06 L/kg,0.8 L/kg,1.6 L/kg,0.83 L/kg,0.56 L/kg,3.72,1040 ng/g,70 ng/g,,,,,,,,,
"CCCCCCCCCCCCN [P12, Dodecylamine]",28 mLcm-2,16.3 mL cm-2,1.29 L/kg,1.13 L/kg,1.31 L/kg,1.07 L/kg,1.87 L/kg,1.56 L/kg,0.79 L/kg,5.58,18500 ng/g,2720 ng/g,4630 ng/g,558 ng/g,35600 ng/g,,,,,,96h-LC50 (Danio rerio): 0.54 mg/L and 0.42 mg/L
"CCCCCCCCCCCCCN [P13, tridecylamine]",62 mLcm-2,25 mL cm-2,,1.59 L/kg,1.44 L/kg,1.28 L/kg,1.33 L/kg,1.54 L/kg,1.77 L/kg,,16000 ng/g,2040 ng/g,2160 ng/g,495 ng/g,,6.16,451 ng/g,,,,"96h-LC50 (Pimephales promelas): 0.065 mg/L; Vd at 7 d ([2]; rainbow trout (Oncorhynchus mykiss), other: exposure via water, Mean): 1.49 L/kg"
"CCCCCCCCCCCCCCCCN [P16, hexadecylamine]",,,1.13 L/kg,0.99 L/kg,1.2 L/kg,1.1 L/kg,1.63 L/kg,1.15 L/kg,0.73 L/kg,,7960 ng/g,364 ng/g,415 ng/g,119 ng/g,5450 ng/g,7.90,90 ng/g,,,,
"CCCCCCCCCN(C)C [T9, N,N-dimethylnonylamine]",0.30 mLcm-2,0.29 mL cm-2,,,,,,,,3.07,,,,,,,,0.49 L/kg,0.53 L/kg,0.45 L/kg,Estimated volume of distribution Vd ([6]; exposed fish #3): 0.41 L/kg; Estimated volume of distribution Vd ([6]; exposed fish #4): 0.51 L/kg; Estimated volume of distribution Vd ([6]; exposed fish #5): 0.52 L/kg; Estimated volume of distribution Vd ([6]; exposed fish #6): 0.52 L/kg
"CCCCCCCCCCCCCN(C)C [T13, N,N-dimethyltridecylamine]",58 mLcm-2,22 mL cm-2,,,,,,,,,,,,,,5.88,,0.71 L/kg,0.58 L/kg,0.64 L/kg,Estimated volume of distribution Vd ([6]; exposed fish #3): 0.59 L/kg; Estimated volume of distribution Vd ([6]; exposed fish #4): 1.18 L/kg; Estimated volume of distribution Vd ([6]; exposed fish #5): 0.80 L/kg; Estimated volume of distribution Vd ([6]; exposed fish #6): 0.47 L/kg
